# Experimental data as given in patent US8586588B2, “Aryl pyridazinone derivatives and their use as H3 receptor ligands” (Cephalon, Inc., priority 2006, dated 2013).
# Counter-ions that a name gives are not always drawn.
# Target: T1, rat histamine H3 receptor (Rattus norvegicus, UniProt Q9QYN8)
# T1 construct: encoding the entire 445-amino-acid rat histamine H3 receptor; expressed in transfected cells
# Assay: Rat H3 radioligand binding ([3H]-N-alpha-methylhistamine, CHO-A3 cell membranes, SPA)
# Settings: Table B, binding constant as letter class; read-out: rat H3 Ki
# Method in brief: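 Scintillation proximity displacement of about 1 nM [3H]-N-alpha-methylhistamine, test compound 0.01 nM-30 μM, 4 h, room temperature, in the dark. Receptor source: rat H3 stably transfected into CHO-A3 cells, 10 μg membrane protein, Tris-HCl pH 7.4/MgCl2/BSA buffer. Nonspecific binding defined by 10 μM clobenpropit.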
# T1 sequence (Q9QYN8 whole entry): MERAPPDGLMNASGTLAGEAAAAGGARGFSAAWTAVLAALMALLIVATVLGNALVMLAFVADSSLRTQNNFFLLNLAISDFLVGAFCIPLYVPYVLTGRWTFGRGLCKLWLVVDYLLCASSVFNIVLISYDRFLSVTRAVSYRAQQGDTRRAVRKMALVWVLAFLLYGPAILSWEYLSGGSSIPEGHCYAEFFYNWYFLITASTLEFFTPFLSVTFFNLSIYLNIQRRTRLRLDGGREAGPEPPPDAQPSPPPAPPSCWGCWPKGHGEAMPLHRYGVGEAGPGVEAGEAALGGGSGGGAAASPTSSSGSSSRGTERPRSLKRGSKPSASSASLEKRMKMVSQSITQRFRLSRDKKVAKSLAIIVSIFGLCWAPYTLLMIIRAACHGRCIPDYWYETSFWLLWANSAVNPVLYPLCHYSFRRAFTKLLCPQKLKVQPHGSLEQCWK
row,Ki [nM],Structure (SMILES)
1,0.1 to 100,"O=C1NN=C(c2ccc(OC3CCN(C4CCCC4)CC3)cc2)C2CC12 (centres unmarked) [Example 261, 5-[4-(1-Cyclopentyl-piperidin-4-yloxy)-phenyl]-3,4-diaza-bicyclo[4.1.0]hept-4-en-2-one]"
2,101 to 500,"C[C@@H]1CCCN1CCCOc1ccc(-n2nc(C3CC3)ccc2=O)cc1 [Example 262, 6-Cyclopropyl-2-{4-[3-((R)-2-methyl-pyrrolidin-1-yl)-propoxy]-phenyl}-2H-pyridazin-3-one]"

# Test system: not given
# Assay: not given
# Settings: not given
row,melting point,Structure (SMILES)
1,283 °C (dec.),"CC(C)n1nc(-c2ccc(OCCCN3CCC(N4CCCC4)CC3)cc2)c2sccc2c1=O (as salt: HCl) [Example 30, 5-Isopropyl-7-{4-[3-(4-pyrrolidin-1-yl-piperidin-1-yl)-propoxy]-phenyl}-5H-thieno[2,3-d]pyridazin-4-one]"
2,106 °C (dec.),"CC(C)n1nc(-c2ccc(OCCCN3[C@H](C)CC[C@H]3C)cc2)c2sccc2c1=O (as salt: HCl) [Example 31, 7-{4-[3-((2R,5R)-2,5-Dimethyl-pyrrolidin-1-yl)-propoxy]-phenyl}-5-isopropyl-5H-thieno[2,3-d]pyridazin-4-one]"
3,151 to 153 °C,"CCCn1nc(-c2ccc(OCCCN3CCC[C@H]3C)cc2)c2sccc2c1=O (as salt: HCl) [Example 32, 7-{4-[3-((R)-2-Methyl-pyrrolidin-1-yl)-propoxy]phenyl}-5-propyl-5H-thieno[2,3-d]pyridazin-4-one]"
4,84 °C (dec.),"CCCn1nc(-c2ccc(OCCCN3[C@H](C)CC[C@H]3C)cc2)c2sccc2c1=O (as salt: HCl) [Example 33, 7-{4-[3-((2R,5R)-2,5-Dimethyl-pyrrolidin-1-yl)-propoxy]-phenyl)-5-propyl-5H-thieno[2,3-d]pyridazin-4-one]"
5,168 to 170 °C,"CCCn1nc(-c2ccc(OCCCN3CCC(C)CC3)cc2)c2sccc2c1=O (as salt: HCl) [Example 34, 7-{4-[3-(4-Methyl-piperidin-1-yl)-propoxy]-phenyl}-5-propyl-5H-thieno[2,3-d]pyridazin-4-one]"
6,207 to 209 °C,"CCCn1nc(-c2ccc(OCCCN3CCC(N(C)C)CC3)cc2)c2sccc2c1=O (as salt: HCl) [Example 35, 7-{4-[3-(4-Dimethylamino-piperidin-1-yl)-propoxy]-phenyl}-5-propyl-5H-thieno[2,3-d]pyridazin-4-one]"
7,123 °C (dec.),"CCCn1nc(-c2ccc(OCCCN3CCC[C@H]3CN3CCCC3)cc2)c2sccc2c1=O (as salt: HCl) [Example 36, 5-Propyl-7-{4-[3-((S)-2-pyrrolidin-1-ylmethyl-pyrrolidin-1-yl)-propoxy]-phenyl}-5H-thieno[2,3-d]pyridazin-4-one]"
8,227 to 229 °C,"O=c1c2ccsc2c(-c2ccc(OCCCN3CCCCC3)cc2)nn1Cc1ccc(Cl)cc1 (as salt: HCl) [Example 37, 5-(4-Chloro-benzyl)-7-[4-(3-piperidin-1-yl-propoxy)-phenyl]-5H-thieno[2,3-d]pyridazin-4-one]"
9,223 to 224 °C,"C[C@@H]1CCCN1CCCOc1ccc(-c2nn(Cc3ccc(Cl)cc3)c(=O)c3ccsc23)cc1 (as salt: HCl) [Example 38, 5-(4-Chloro-benzyl)-7-{4-[3-((R)-2-methyl-pyrrolidin-1-yl)-propoxy]-phenyl}-5H-thieno[2,3-d]pyridazin-4-one]"
10,175 to 176 °C,"Cc1cc(-c2ccc(OCCCN3CCC[C@H]3C)cc2)nn(C)c1=O (as salt: HCl) [Example 40, 2,4-Dimethyl-6-{4-[3-((R)-2-methyl-pyrrolidin-1-yl)-propoxy]-phenyl}-2H-pyridazin-3-one]"
11,197 to 198 °C,"Cc1cc(-c2ccc(OCCCN3CCCCC3)cc2)nn(C(C)C)c1=O (as salt: HCl) [Example 42, 2-Isopropyl-4-methyl-6-[4-(3-piperidin-1-yl-propoxy)-phenyl]-2H-pyridazin-3-one]"
12,190 to 192 °C,"Cc1cc(-c2ccc(OCCCN3CCC[C@H]3C)cc2)nn(Cc2ccccc2)c1=O (as salt: HCl) [Example 43, 2-Benzyl-4-methyl-6-{4-[3-((R)-2-methyl-pyrrolidin-1-yl)-propoxy]-phenyl}-2H-pyridazin-3-one]"

# Second part, the molecule before the results:
row,Structure (SMILES),melting point
1,"C[C@@H]1CCCN1CCCOc1ccc(-c2ccc(=O)n(C)n2)cc1 (as salt: HCl) [Example 1, 2-Methyl-6-{4-[3-((R)-2-methyl-pyrrolidin-1-yl)-propoxy]-phenyl}-2H-pyridazin-3-one]",183 to 185 °C
2,"Cn1nc(-c2ccc(OCCCN3CCCCC3)cc2)ccc1=O (as salt: HCl) [Example 2, 2-Methyl-6-[4-(3-piperidin-1-yl-propoxy)-phenyl]-2H-pyridazin-3-one]",200 to 201 °C
3,"CC(C)n1nc(-c2ccc(OCCCN3CCCCC3)cc2)ccc1=O (as salt: HCl) [Example 3, 2-Isopropy1-6-[4-(3-piperidin-1-yl-propoxy)-pheny1]-2H-pyridazin-3-one]",118 to 122 °C
4,"C[C@@H]1CCCN1CCCOc1ccc(-c2ccc(=O)n(C)n2)cc1F (as salt: HCl) [Example 7, 6-{3-Fluoro-4-[3-((R)-2-methyl-pyrrolidin-1-yl)-propoxy]-phenyl}-2-methyl-2H-pyridazin-3-one]",140 to 142 °C
5,"O=c1ccc(-c2ccc(OCCCN3CCCCC3)c(F)c2)nn1-c1ccccc1 (as salt: HCl) [Example 10, 6-[3-Fluoro-4-(3-piperidin-1-yl-propoxy)-phenyl]-2-phenyl-2H-pyridazin-3-one]",230 to 232 °C
6,"C[C@@H]1CCCN1CCCOc1ccc(-c2n[nH]c(=O)c3c2CCC3)cc1 (as salt: HCl) [Example 12, 4-{4-[3-((R)-2-Methyl-pyrrolidin-1-yl)-propoxy]-phenyl}-2,5,6,7-tetrahydro-cyclopenta[d]pyridazin-1-one]",147 °C
7,"C[C@H](COc1ccc(-c2ccc(=O)n(C)n2)cc1)CN1CCC[C@H]1C (as salt: HCl) [Example 13, 2-Methyl-6-{4-[(S)-2-methyl-3-((R)-2-methyl-pyrrolidin-1-yl)-propoxy]-phenyl}-2H-pyridazin-3-one]",188 to 190 °C
8,"Cn1nc(-c2ccc(OCCCN3CCC[C@H]3CO)cc2)ccc1=O (as salt: HCl) [Example 14, 6-{4-[3-((S)-2-Hydroxymethyl-pyrrolidin-1-yl)-propoxy]-phenyl}-2-methyl-2H-pyridazin-3-one]",169 °C
9,"Cn1nc(-c2ccc(OCCCN3CCC[C@@H]3CO)cc2)ccc1=O (as salt: HCl) [Example 15, 6-{4-[3-((R)-2-Hydroxymethyl-pyrrolidin-1-yl)-propoxy]-phenyl}-2-methyl-2H-pyridazin-3-one]",166 to 167 °C
10,"C[C@@H]1CCCN1CCCOc1ccc(C2=NN(Cc3ccccc3)C(=O)CC2)cc1 (as salt: HCl) [Example 17, 2-Benzyl-6-{4-[3-((R)-2-methyl-pyrrolidin-1-yl)-propoxy]-phenyl}-4,5-dihydro-2H-pyridazin-3-one]",56 to 58 °C
11,"C[C@@H]1CCCN1CCCOc1ccc(-c2ccc(=O)n(Cc3ccccc3)n2)cc1 (as salt: HCl) [Example 18, 2-Benzyl-6-{4-[3-((R)-2-methyl-pyrrolidin-1-yl)-propoxy]-phenyl}-2H-pyridazin-3-one]",228 to 230 °C
12,C[C@@H]1CCCN1CCCOc1ccc(C2=NN(c3ccccc3)C(=O)CC2)cc1 (as salt: HCl) [Example 19],213 to 215 °C
13,"C[C@@H]1CCCN1CCCOc1ccc(-c2ccc(=O)n(-c3ccccc3)n2)cc1 (as salt: HCl) [Example 20, 6-{4-[3-((R)-2-Methyl-pyrrolidin-1-yl)-propoxy]-phenyl}-2-phenyl-2H-pyridazin-3-one]",82 to 86 °C
14,"CC1CCC(C)N1CCCOc1ccc(-c2nn(C(C)C)c(=O)c3ccsc23)cc1 (centres unmarked) (as salt: HCl) [Example 23, 7-{4-[3-(2,5-Dimethyl-pyrrolidin-1-yl)-propoxy]-phenyl}-5-isopropyl-5H-thieno[2,3-d]pyridazin-4-one]",158 to 159 °C
15,"CC(C)n1nc(-c2ccc(OCCCN3CCCCC3)cc2)c2sccc2c1=O (as salt: HCl) [Example 24, 5-Isopropyl-7-[4-(3-piperidin-1-yl-propoxy)-phenyl]-5H-thieno[2,3-d]pyridazin-4-one]",195 to 196 °C
16,"CC(C)n1nc(-c2ccc(OCCCN3CCCC(C)(C)C3)cc2)c2sccc2c1=O (as salt: HCl) [Example 25, 7-{4-[3-(3,3-Dimethyl-piperidin-1-yl)-propoxy]-phenyl}-5-isopropyl-5H-thieno[2,3-d]pyridazin-4-one]",100 to 102 °C
17,"COC[C@@H]1CCCN1CCCOc1ccc(-c2nn(C(C)C)c(=O)c3ccsc23)cc1 (as salt: HCl) [Example 26, 5-Isopropyl-7-{4-[3-((S)-2-methoxymethyl-pyrrolidin-1-yl)propoxy]-phenyl}-5H-thieno[2,3-d]pyridazin-4-one]",83 °C (dec.)
18,"CCN(CC)CCCOc1ccc(-c2nn(C(C)C)c(=O)c3ccsc23)cc1 (as salt: HCl) [Example 28, 7-[4-(3-Diethylamino-propoxy)-phenyl]-5-isopropyl-5H-thieno[2,3-d]pyridazin-4-one]",188 to 190 °C
19,"CC(C)n1nc(-c2ccc(OCCCN3CCCC3)cc2)c2sccc2c1=O (as salt: HCl) [Example 29, 5-Isopropyl-7-[4-(3-pyrrolidin-1-yl-propoxy)-phenyl]-5H-thieno[2,3-d]-pyridazin-4-one]",144 °C

# Target: T2, human H3 receptor (Homo sapiens, UniProt Q9Y5N1)
# T2 construct: expressed in transfected cells
# Assay: Human H3 radioligand binding ([3H]-N-alpha-methylhistamine, CHO cell membranes, SPA)
# Settings: Table B, binding constant as letter class
# Method in brief: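 Scintillation proximity format: bead-proximal [3H]-N-alpha-methylhistamine (approximately 1 nM final) bound to human H3 receptor in CHO membranes was counted after 4 h at room temperature, light-protected. Buffer was pH 7.4 Tris/MgCl2/BSA; test compounds spanned 0.01 nM-30 μM; 10 μM clobenpropit set non-specific binding.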
# T2 sequence (Q9Y5N1 whole entry): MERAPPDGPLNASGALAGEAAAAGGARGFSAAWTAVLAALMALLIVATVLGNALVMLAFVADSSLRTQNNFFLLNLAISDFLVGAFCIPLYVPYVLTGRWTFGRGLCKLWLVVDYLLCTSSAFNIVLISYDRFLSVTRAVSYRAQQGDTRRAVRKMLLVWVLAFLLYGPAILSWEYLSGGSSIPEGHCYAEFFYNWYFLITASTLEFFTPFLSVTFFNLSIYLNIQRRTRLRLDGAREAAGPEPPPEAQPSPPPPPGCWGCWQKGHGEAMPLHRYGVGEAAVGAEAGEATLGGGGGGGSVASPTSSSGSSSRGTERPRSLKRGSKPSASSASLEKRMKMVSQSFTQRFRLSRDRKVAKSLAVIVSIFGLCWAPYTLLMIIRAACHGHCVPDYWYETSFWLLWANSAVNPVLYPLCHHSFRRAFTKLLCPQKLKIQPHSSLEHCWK
row,Ki [nM],Structure (SMILES)
1,0.1 to 100,"O=C1NN=C(c2ccc(OC3CCN(C4CCCC4)CC3)cc2)C2CC12 (centres unmarked) [Example 261, 5-[4-(1-Cyclopentyl-piperidin-4-yloxy)-phenyl]-3,4-diaza-bicyclo[4.1.0]hept-4-en-2-one]"
2,0.1 to 100,"C[C@@H]1CCCN1CCCOc1ccc(-n2nc(C3CC3)ccc2=O)cc1 [Example 262, 6-Cyclopropyl-2-{4-[3-((R)-2-methyl-pyrrolidin-1-yl)-propoxy]-phenyl}-2H-pyridazin-3-one]"
